{
  "source": "patent US5082771A",
  "about": "“Detecting cells using tellurapyrylium dihydroxides” (Eastman Kodak Company, priority 1989, dated 1992)",
  "key": {"E. Coli [1]": {"test_system": "E. Coli", "experiment": "Absorption spectra over time of a system comprising E. Coli and a tellurium (IV) dihydroxide (FIG. 1)", "type": "cell-based", "conditions": "for absorption maximum: FIG. 1, system comprising E. Coli", "from_the_text": "FIG. 1 comprises a series of plots showing the change, over time, of the absorption spectrum of a system comprising E. Coli. and a tellurium (IV) dihydroxide. More specifically, the series of plots follows the reduction: [drawing 1] as a function of time.\nOver time, as the E. Coli reduces the tellurium (IV) dihydroxide. i.e., the TPDH. the absorption at 510 nm diminishes until it becomes non existent. As the absorption diminishes at 510 nm, a much more intense absorption peak at about 820 nm arises. In other words, the extinction coefficient for the absorption maximum of the TPDH is mu:h less than the extinction coefficient for the absorption maximum for the reduction product. Stated another way, the extinction coefficient for the absorption peak of the reduction product is much greater than the extinction coefficient for the absorption peak of the TPDH.\nThe time interval between each spectophometric tracing in FIG. 1 is about 30 seconds."}, "[2]": {"experiment": "Maximum absorption and extinction coefficient of the Te(IV) dihydroxides in water", "type": "physicochemical", "conditions": "for extinction coefficient (ε): at λmax", "from_the_text": "The maximum absorption and extinction coefficient for the compounds in water is listed below: […]"}, "[3]": {"experiment": "Stability (half life) at 37° C. at various pH values", "type": "physicochemical", "from_the_text": "The stability of the dihydroxycompounds used in this invention is generally very good."}, "E. Coli [4]": {"test_system": "E. Coli", "experiment": "Reduction of Te/Te Dye by suspension of E. Coli cells, change in optical density as a function of time (Example 2)", "type": "cell-based", "conditions": "1 × 10^-4 M, pH about 7.8", "from_the_text": "The final concentration of the TPDN was about 1×10^-4 molar after dilution.\nThe stock solutions of the TPDH can be prepared in a concentration within the range of from about 5×10^-2 and about 5×10^-4 molar."}},
  "data": [
    {"smiles": "CC(C)(C)C1=CC(=CC=Cc2cc(C(C)(C)C)[te+]c(C(C)(C)C)c2)C=C(C(C)(C)C)[Te]1", "note": "[compound (b), 4-[3-[2,6-bis(1,1-dimethylethyl-4H-tellurin-4-ylidene]-1-propenyl]-2,6-bis(1,1-dimethylethyl) -tellurinium chloride]", "values": [
      {"measurement": "absorption maximum", "setting": "E. Coli [1]", "result": "about 820 nm"}
    ]},
    {"smiles": "CC(C)(C)C1=CC(=CC=Cc2cc(C(C)(C)C)[se+]c(C(C)(C)C)c2)C=C(C(C)(C)C)[Te]1(O)O", "note": "[Te/Se Dye]", "values": [
      {"measurement": "maximum absorption (λmax)", "setting": "[2]", "result": 502, "unit": "nm"},
      {"measurement": "extinction coefficient (ε)", "setting": "[2]", "result": "55,000"}
    ]},
    {"smiles": "CC(C)(C)C1=CC(=CC=Cc2cc(C(C)(C)C)[te+]c(C(C)(C)C)c2)C=C(C(C)(C)C)[Te]1(O)O", "note": "[drawing 16]", "values": [
      {"measurement": "half-life", "setting": "[3]; pH 4.58", "result": 3.5, "unit": "h"},
      {"measurement": "half-life", "setting": "[3]; pH 5.98", "result": 4.5, "unit": "h"},
      {"measurement": "half-life", "setting": "[3]; pH 7.4, pH 7.40", "result": 12, "unit": "h"},
      {"measurement": "half-life", "setting": "[3]; pH 8.5, pH 8.50", "result": 12, "unit": "h"},
      {"measurement": "half-life", "setting": "[3]; pH 9.03", "result": 8.5, "unit": "h"},
      {"measurement": "half-life", "setting": "[3]; pH 10.2, pH 10.20", "result": 8, "unit": "h"},
      {"measurement": "half-life", "setting": "[3]; pH 11.98", "result": 6.3, "unit": "h"}
    ]},
    {"smiles": "CC(C)(C)C1=CC(=CC=Cc2cc(C(C)(C)C)[te+]c(C(C)(C)C)c2)C=C(C(C)(C)C)[Te]1(O)O", "note": "[Te/Te Dye, 4[3[2,6-bis(1,1-dimethylethyl)-tellurinium-4-yl]-2-propenylidene]-1,1-dihydroxy-2,6-bis(1,1-dimethylethyl)-1,1-dihydro-4H-tellurin chloride]", "values": [
      {"measurement": "absorption at about 820 nm", "setting": "E. Coli [1]; FIG. 1, before reduction", "result": "practically no absorption"},
      {"measurement": "absorption maximum", "setting": "E. Coli [1]", "result": "about 510 nm"},
      {"measurement": "absorption at about 510 nm after reduction by E. Coli", "setting": "E. Coli [1]; over time, tracings about every 30 seconds", "result": "non existent"},
      {"measurement": "maximum absorption (λmax)", "setting": "[2]", "result": 510, "unit": "nm"},
      {"measurement": "extinction coefficient (ε)", "setting": "[2]", "result": "56,000"},
      {"measurement": "Optical Density (O.D.) @ 820 nm", "setting": "E. Coli [4]; 10^5 Cells/mL, 0.0 s", "result": 0.05},
      {"measurement": "Optical Density (O.D.) @ 820 nm", "setting": "E. Coli [4]; 10^5 Cells/mL, 60 s", "result": 0.15},
      {"measurement": "Optical Density (O.D.) @ 820 nm", "setting": "E. Coli [4]; 10^5 Cells/mL, 120 s", "result": 0.90},
      {"measurement": "Optical Density (O.D.) @ 820 nm", "setting": "E. Coli [4]; 10^5 Cells/mL, 180 s", "result": 0.65},
      {"measurement": "Optical Density (O.D.) @ 820 nm", "setting": "E. Coli [4]; 10^5 Cells/mL, 240 s", "result": 0.89},
      {"measurement": "Optical Density (O.D.) @ 820 nm", "setting": "E. Coli [4]; 10^5 Cells/mL, 300 s", "result": 0.98},
      {"measurement": "Optical Density (O.D.) @ 820 nm", "setting": "E. Coli [4]; 10^5 Cells/mL, 360 s", "result": 1.13},
      {"measurement": "Optical Density (O.D.) @ 820 nm", "setting": "E. Coli [4]; 10^5 Cells/mL, 420 s", "result": 1.18},
      {"measurement": "Optical Density (O.D.) @ 820 nm", "setting": "E. Coli [4]; 10^5 Cells/mL, 480 s", "result": 1.23},
      {"measurement": "Optical Density (O.D.) @ 820 nm", "setting": "E. Coli [4]; 10^5 Cells/mL, 540 s", "result": 1.24},
      {"measurement": "Optical Density (O.D.) @ 820 nm", "setting": "E. Coli [4]; 10^6 Cells/mL, 0.0 s", "result": 0.05},
      {"measurement": "Optical Density (O.D.) @ 820 nm", "setting": "E. Coli [4]; 10^6 Cells/mL, 30 s", "result": 0.10},
      {"measurement": "Optical Density (O.D.) @ 820 nm", "setting": "E. Coli [4]; 10^6 Cells/mL, 60 s", "result": 0.32},
      {"measurement": "Optical Density (O.D.) @ 820 nm", "setting": "E. Coli [4]; 10^6 Cells/mL, 120 s", "result": 0.63},
      {"measurement": "Optical Density (O.D.) @ 820 nm", "setting": "E. Coli [4]; 10^6 Cells/mL, 150 s", "result": 0.84},
      {"measurement": "Optical Density (O.D.) @ 820 nm", "setting": "E. Coli [4]; 10^6 Cells/mL, 210 s", "result": 1.15},
      {"measurement": "Optical Density (O.D.) @ 820 nm", "setting": "E. Coli [4]; 10^6 Cells/mL, 270 s", "result": 1.46},
      {"measurement": "Optical Density (O.D.) @ 820 nm", "setting": "E. Coli [4]; 10^6 Cells/mL, 300 s", "result": 1.60},
      {"measurement": "Optical Density (O.D.) @ 820 nm", "setting": "E. Coli [4]; 10^6 Cells/mL, 330 s", "result": 1.73},
      {"measurement": "Optical Density (O.D.) @ 820 nm", "setting": "E. Coli [4]; 10^6 Cells/mL, 390 s", "result": 2.00}
    ]},
    {"smiles": "CC(C)(C)C1=CC(=CC=Cc2cc(C(C)(C)C)[s+]c(C(C)(C)C)c2)C=C(C(C)(C)C)[Te]1(O)O", "note": "[Te/S Dye]", "values": [
      {"measurement": "maximum absorption (λmax)", "setting": "[2]", "result": 480, "unit": "nm"},
      {"measurement": "extinction coefficient (ε)", "setting": "[2]", "result": "52,000"}
    ]}
  ]
}
